Assay type in all cases: cell-based
For assay [1], the target named is T1, estrogen receptor-alpha (ERα) (Homo sapiens (Human), UniProt P03372). Description: Estrogen receptor-alpha (ERα) degradation assay in T47D cells. The note with it: % degraded, 5 day incubation, read-out: ER Degradation Dmax.
For a further assay, the system named is estrogen receptor. Description: ERE luciferase assay in T47D-KBluc cells. The note with it: Homo sapiens, 24 hours, read-out: ER Target Engagement IC50. How it is done: 1. ERE Luciferase Assay for Compounds in Table 2
T47D-1(Bluc cells (ATCC® ECRL 2 65, T47D human breast cancer cells stably transfected with estrogen responsive element/promoter/luciferase reporter gene) were seeded into 96-well white opaque plates in IR: PM growth medium supplemented with 10% fetal bovine serum (FBS) and allowed to adhere overnight in a 37° C. humidified incubator. The following day, cells were treated with PROTACs in a 12-point concentration curve (top final concentration of 300 nM with subsequent concentrations being 3-fold less with […] being the lowest concentration in the assay). Each PROTAC was tested independently in two experiments on 96-well plates. After 24 hours, media was removed and lysis buffer was added to the wells. Following lysis, Bright-Glo™ Luciferase Assay Substrate (Promega, Madison WI) was added and the luciferase activity was measured using a Cytation 3 plate reader (BioTek™, Winooski, VT). Each compound was assayed in duplicate and the activity was calculated as […] using GraphPad Prism software (San Diego, CA).

For assay [2], the target named is T1, estrogen receptor-alpha (ERα). Description: Estrogen receptor-alpha (ERα) degradation assay in MCF7 cells (In-Cell Western / western blot). The note with it: % degraded, read-out: ER Degradation Dmax. The protocol:
2. Estrogen Receptor-Alpha (ERα) Degradation Assay in MCF-7 Cells Using Western Blot Method for Table 5
The exemplary novel ERα degraders were assessed for their activity in degrading ERα in MCF-7 cells via western blot. The assay was carried out in the presence of 10% FBS or high percentage of human or mouse serum. Protocols of the western blot assay are described below.
MCF7 cells were grown in DMEM/F12 with 10% FBS and seeded at 24,000 cells per well in 100 μl into 96-well clear tissue culture plates. The following day, the cells were treated with PROTACs in a […] concentration curve with 100 nM being the top concentration and serial dilutions to make the other concentrations (30 nM, 10 nM. 3 nM, 1 nM, and 0.3 nM). At all concentrations, 0.01% DMSO is the final concentration in the well. The following day, the plates are aspirated, washed with 50 μl of cold PBS. The cells are lysed with 50 μl/well 4° C. Cell Lysis Buffer (Catalog #9803; Cell Signaling Technology, Danvers, MA) (20 mM Tris-HCL (pH 7.5), 150 mM NaCl, 1 mM Na2EDTA, 1 mM EGTA, 1% Triton, 2.5 mM sodium pyrophosphate, 1 mM B-glycerophosphate, 1 mM sodium vanadate, 1 μg/ml leupeptin). Lysates were clarified at 16,000× g for 10 minutes, and 2 μg of protein was subjected to SDS-PAGE analysis and followed by immunoblotting according to standard protocols. The antibodies used were ERα (Cell Signaling, Technologies Catalog #8644), and Tubulin (Sigma Catalog #T9026; St. Louis, MO). Detection reagents were Clarity Western ECL substrate (Bio-Rad Catalog 4170-5060; Hercules, CA).
Alternatively, MCF7 cells were grown in DMEM/F12 with 10% FBS and seeded at 24,000 cells per well in 500 μl in 24-well clear tissue culture plates. The following day, the cells were treated with PROTACs in a 5-point concentration curve (100 nM, 33 nM, 11 nM, 3.7 nM, and 1.2 nM) in the presence of 0.01% DMSO. After 72 hours, the wells are aspirated and washed with 500 μl of PBS. The cells are lysed with 100 μl/well 4° C. Cell Lysis Buffer (Catalog #9803; Cell Signaling Technology, Danvers, MA) (20 mM Tris-HCL (pH 7.5), 150 mM NaCl, 1 mM Na2EDTA, 1 mM EGTA, 1% Triton, 2.5 mM sodium pyrophosphate, 1 mM B-glycerophosphate, 1 mM sodium vanadate, 1 ug/ml leupeptin). Lysates were clarified at 16,000× g for 10 minutes, and 2 μg of protein was subjected to SDS-PAGE analysis and followed by immunoblotting according to standard protocols. The antibodies used were ERα (Cell Signaling Technologies Catalog #8644), and Tubulin (Sigma Catalog #T9026; St. Louis, MO). Detection reagents were Clarity Western ECL substrate (Bio-Rad Catalog 4170-5060; Hercules, CA).
3. Estrogen receptor-alpha (ERα) degradation assay using In-Cell Western™ Assay for Table 5
Degradation of ERα by claimed compounds were determined in MCF7 cells using an In-Cell Western™ assay. Briefly, MCF7 cells were plated in 96-well plates (2000 cells per well in 100 μl media) and incubated at 37° C. under an atmosphere of 5% CO2 in a humidified incubator overnight. One-hundred (100) μl of media containing test compound (at 2× concentration) was added to the appropriate wells to provide 11 serially decreasing concentrations (top final concentration, 1 μM then 3-fold less for the next 10 concentrations); a vehicle control (DMSO) was also added for each compound. For each experiment, all compounds were assayed in duplicate plates. Cells were then incubated for 3 or 5 days in the above-mentioned environment. The assay was terminated by removal of media, a single wash with ice-cold PBS and the addition of […] paraformaldehyde (PFA: 4% in PBS). After 15 minutes in PFA at room temperature, the cells were permeabilized in Tris-phosphate-buffered saline with Tween (0.1%) (TBST) supplemented with Triton X-100 (0.5%) for 15 minutes. Cells were then blocked in BSA (TBST with BSA, 3%) for one hour. […] The cells were incubated overnight at 4° C. […]
On the technique in general: In western blotting, separated proteins are transferred to a membrane and probed.

By Dmax is commonly meant the greatest extent of degradation seen. As a reminder, the IC50 is the midpoint of a concentration-inhibition curve.

Where only a bound is given, the exact number is not on record here.

T1 sequence (P03372 whole entry): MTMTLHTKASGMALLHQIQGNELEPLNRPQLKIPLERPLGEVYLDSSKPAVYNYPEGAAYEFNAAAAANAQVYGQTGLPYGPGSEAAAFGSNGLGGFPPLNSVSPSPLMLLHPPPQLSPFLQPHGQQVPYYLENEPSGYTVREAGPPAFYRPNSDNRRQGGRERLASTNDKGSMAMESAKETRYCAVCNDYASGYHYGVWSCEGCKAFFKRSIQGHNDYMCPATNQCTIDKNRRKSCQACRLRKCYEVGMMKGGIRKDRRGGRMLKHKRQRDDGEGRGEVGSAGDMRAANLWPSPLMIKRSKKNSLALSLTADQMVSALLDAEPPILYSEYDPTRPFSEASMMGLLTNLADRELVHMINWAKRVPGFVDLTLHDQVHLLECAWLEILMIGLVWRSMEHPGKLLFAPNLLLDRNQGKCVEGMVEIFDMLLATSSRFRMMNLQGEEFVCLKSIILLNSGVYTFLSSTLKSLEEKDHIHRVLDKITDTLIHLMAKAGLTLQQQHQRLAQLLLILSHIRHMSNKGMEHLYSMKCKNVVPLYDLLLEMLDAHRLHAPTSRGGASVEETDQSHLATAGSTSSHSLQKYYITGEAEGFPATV

As to `O=C1CCC(N2CC(Oc3cccc(C4CCN(CCCOc5ccc([C@H]6c7ccc(O)cc7CC[C@H]6c6ccccc6)cc5)CC4)c3)=CC2=O)C(=O)N1` (mixture of isomers) [PROTAC-105, rac-3-(4-(3-(1-(3-(4-((1R,2S)-6-hydroxy-2-phenyl-1,2,3,4-tetrahydronaphthalen-1-yl)phenoxy)propyl)piperidin-4-yl)phenoxy)-2-oxo-2,5-dihydro-1H-pyrrol-1-yl)piperidine-2,6-dione], the greatest degradation seen (Dmax) in assay [1] is no more than 50%. The half-inhibitory concentration (IC50) with estrogen receptor was in the range of 1 to 10 nM. `O=C1CCC(N2CC(Oc3cccc(C4CCN(CCCCOc5ccc([C@@H]6c7ccc(O)cc7CC[C@@H]6c6ccccc6)cc5)CC4)c3)=CC2=O)C(=O)N1` (mixture of isomers) [PROTAC-104, rac-3-(4-(3-(1-(4-(4-((1R,2S)-6-hydroxy-2-phenyl-1,2,3,4-tetrahydronaphthalen-1-yl)phenoxy)butyl)piperidin-4-yl)phenoxy)-2-oxo-2,5-dihydro-1H-pyrrol-1-yl)piperidine-2,6-dione]: in assay [1], the maximal degradation (Dmax) was no more than 50%. Moreover, in the assay with estrogen receptor, the IC50 lay within 1 to 10 nM. For the compound `CCN(C(=O)c1ccc(N2CCN(CCCCCOc3ccc([C@@H]4c5ccc(O)cc5CC[C@@H]4c4ccccc4)cc3)CC2)cc1OC)C1CCC(=O)NC1=O` (mixture of isomers) [PROTAC-92, rac-N-(2,6-dioxopiperidin-3-yl)-N-ethyl-4-(4-(5-(4-((1R,2S)-6-hydroxy-2-phenyl-1,2,3,4-tetrahydronaphthalen-1-yl)phenoxy)pentyl)piperazin-1-yl)-2-methoxybenzamide], in assay [1], the Dmax was no more than 50%. Turning to `O=C1CCC(N2CC(Oc3cccc(C4CCN(CCCCOc5ccc([C@H]6c7ccc(O)cc7CC[C@H]6c6ccccc6)cc5)CC4)c3)=CC2=O)C(=O)N1` (mixture of isomers) [PROTAC-109, rac-3-(4-(3-(1-(4-(4-((1R,2S)-6-hydroxy-2-phenyl-1,2,3,4-tetrahydronaphthalen-1-yl)phenoxy)butyl)piperidin-4-yl)phenoxy)-2-oxo-2,5-dihydro-1H-pyrrol-1-yl)piperidine-2,6-dione], the maximal degradation (Dmax) in assay [1] was no more than 50%. In addition, the IC50 in the assay with estrogen receptor is no less than 100 nM. Take `O=C1CCC(n2ncc(Oc3ccc(O[C@H]4CCN(CCOc5ccc([C@@H]6c7ccc(O)cc7CC[C@@H]6c6ccc(F)cc6)cc5)C4)nc3)cc2=O)C(=O)N1` (mixture of isomers) [PROTAC-94, rac-3-(4-((6-(((R)-1-(2-(4-((1S,2R)-2-(4-fluorophenyl)-6-hydroxy-1,2,3,4-tetrahydronaphthalen-1-yl)phenoxy)ethyl)pyrrolidin-3-yl)oxy)pyridin-3-yl)oxy)-6-oxopyridazin-1(6H)-yl)piperidine-2,6-dione]: the Dmax in assay [2] (3 day incubation) was no more than 50%. Also, the IC50 in the assay on estrogen receptor is less than 1 nM. Turning to `O=C1CCC(n2ncc(Oc3ccc(CCCCOc4ccc([C@@H]5c6ccc(O)cc6CC[C@@H]5c5ccc(F)cc5)cc4)nc3)cc2=O)C(=O)N1` (mixture of isomers) [PROTAC-98, rac-3-(4-((6-(4-(4-((1R,2S)-2-(4-fluorophenyl)-6-hydroxy-1,2,3,4-tetrahydro-naphthalen-1-yl)phenoxy)butyl)pyridin-3-yl)oxy)-6-oxopyridazin-1(6H)-yl)piperidine-2,6-dione], in assay [2] (5 day incubation), the greatest degradation seen (Dmax) was no more than 50%. In addition, the concentration for half-maximal inhibition (IC50) with estrogen receptor is 1 to 10 nM.

For `O=C1CCC(n2ncc(N3CCN(CC4CCN(c5ccc([C@@H]6c7ccc(O)cc7CC[C@@H]6c6ccccc6)cc5)CC4)CC3)cc2=O)C(=O)N1` (stereo partly drawn) [PROTAC-102, 3-[4-[4-[[1-[4-[(1R, 2 S)-6-hydroxy-2-phenyl-tetralin-1-yl]phenyl]-4-piperidyl]methyl]piperazin-1-yl]-6-oxo-pyridazin-1-yl]piperidine-2,6-dione], the Dmax in assay [2] (5 day incubation) is greater than 75%. Besides, the 50% inhibitory concentration (IC50) in the assay with estrogen receptor was in the range of 1 to 10 nM. As for `O=C1CCC(N2CC(Oc3cccc(C4CCN(CCCOc5ccc([C@@H]6c7ccc(O)cc7CC[C@@H]6c6ccccc6)cc5)CC4)c3)=CC2=O)C(=O)N1` (stereo partly drawn) [PROTAC-106, 3-(4-(3-(1-(3-(4-((1R,2 S)-6-hydroxy-2-phenyl-1,2,3,4-tetrahydronaphthalen-1-yl)phenoxy)propyl)piperidin-4-yl)phenoxy)-2-oxo-2,5-dihydro-1H-pyrrol-1-yl)piperidine-2,6-dione], in assay [1], the Dmax is no more than 50%. In addition, the 50% inhibitory concentration (IC50) in the assay on estrogen receptor is less than 1 nM. Turning to `O=C1CCC(n2cc(-c3ccc(N4CCN(CCCOc5ccc([C@@H]6c7ccc(O)cc7CC[C@@H]6c6ccccc6)cc5)CC4)cc3)cn2)C(=O)N1` (mixture of isomers) [PROTAC-110, rac-3-(4-(4-(4-(3-(4-((1R,2S)-6-hydroxy-2-phenyl-1,2,3,4-tetrahydronaphthalen-1-yl)phenoxy)propyl)piperazin-1-yl)phenyl)-1H-pyrazol-1-yl) piperidine-2,6-dione], the maximal degradation (Dmax) in assay [2] (5 day incubation) was in the range of 50 to 75%. The IC50 with estrogen receptor was less than 1 nM.

Take `O=C1CCC(n2cnc(N3CCN(CCCCCOc4ccc([C@@H]5c6ccc(O)cc6CC[C@@H]5c5ccccc5)cc4)CC3)cc2=O)C(=O)N1` (mixture of isomers) [PROTAC-101, rac-3-(4-(4-(5-(4-((1R,2S)-6-hydroxy-2-phenyl-1,2,3,4-tetrahydronaphthalen-1-yl)phenoxy)pentyl)piperazin-1-yl)-6-oxopyrimidin-1(6H)-yl)piperidine-2,6-dione]: the Dmax in assay [2] (5 day incubation) was in the range of 50 to 75%. In addition, in the assay on estrogen receptor, the 50% inhibitory concentration (IC50) was in the range of 1 to 10 nM.
